Test results published in patent US9630001B2, “Methods for modulating osteochondral development using bioelectric stimulation” (MedRelief Inc., priority 2005, dated 2017).

Tested on: Normal human cartilage cells (HCC)
Experiment: Cell growth assessed by DNA content of the cell layer
Format: cell-based
Conditions: 0.1% serum, PEMF 40 microAmps once every 24 hours, measured after 72 hours, L-NAME co-administered
Procedure: Normal human cartilage cells (HCC; CAMBREX®, Walkersville, Md.) were plated in rectangular cell chambers in monolayer. PEMF application was capacitively coupled through a niobium electrode bridge system which allowed a time varying current to flow uniformly through the chambers. A pulse-burst B-type signal as described herein is composed of a 10-msec burst of asymmetric rectangular pulses, 200/28 microseconds in width, repeated at 15 Hz. The PEMF signal was applied for 30 minutes per treatment. Cell growth was assessed by DNA content of the cell layer. Nitric oxide (NO) content of culture media was assessed by the Griess reaction using an assay kit from INVITROGEN INC.® (Carlsbad, Calif.). Results are expressed as micromoles of NO per cell number as assessed by DNA content of the cell layer.

Q: `COC(=O)[C@@H](N)CCCNC(=N)N[N+](=O)[O-]` [L-NAME, N(G)-nitro-1-arginine methyl ester] was tested. Which “effect on PEMF-increased cell number (DNA, FIG. 7)” value did it give?
A: attenuated
